We go through seven compounds from patent US20100144793A1, “NOVEL COMPOUNDS FOR THE TREATMENT OF DISEASES ASSOCIATED WITH AMYLOID OR AMYLOID-LIKE PROTEINS” (AC IMMUNE SA, priority 2006, published 2010).

Counter-ions that a name gives are not always drawn. Like-named read-outs stand apart in the source and are kept apart here.

Common to all, as to assay type: biochemical
One test concerns the target T1, Aβ1-42 (Homo sapiens, UniProt P05067).
T1 construct: Aβ1-42 lyophilized powder (Bachem) was reconstituted in hexafluoroisopropanol (HFIP) to 1 mM; purchased Bachem
Nature of the test: Thioflavin T spectrofluorescence assay: inhibition of Aβ1-42 aggregation. The conditions noted are these: 24 h. How it is done:
(§1) The objective of this example was to evaluate the capacity of the compounds of the invention to inhibit the aggregation of (Aβ)1-42 peptide and to disaggregate pre-aggregated Aβ1-42 using a thioflavin T spectrofluorescence assay.
(§2) Aβ1-42 lyophilized powder (Bachem) was reconstituted in hexafluoroisopropanol (HFIP) to 1 mM. The peptide solution was sonicated for 15 min at room temperature, agitated overnight, and aliquots were placed into non-siliconized microcentrifuge tubes. The HFIP was then evaporated under a stream of argon. The resulting peptide film was dried under vacuum for 10 min, tightly sealed and stored at −80° C. until used.
Aβ1-42 peptide film was dissolved in DMSO to reach 400 μM. Assay solution in PBS was prepared in non-siliconized incubation tubes to reach the following concentrations: 330 μM small molecule, 33 μM Aβ1-42, 10 μM thioflavin T (ThT), and 12.8% DMSO. Therefore, the final molar ratio of small molecule to Aβ1-42 was 10:1. A positive control without a small molecule was prepared to measure maximum RFU. A negative control without Aβ1-42 was prepared for each small molecule. 3-aminopyrazole trimer (Trimer) was tested in all assays to ascertain reproducibility between independent experiments. The solutions were then incubated for 24 h at 37° C., and the spectrofluorescence (relative fluorescence units; RFU) read in six replicates in black 384-well assay plates (Perkin-Elmer) on a Perkin-Elmer FluoroCount spectrofluorometer. Inhibition of aggregation is expressed as mean % inhibition±1 standard deviation (SD) according to the following equation: […]

In the next test the target is T2, preformed Aβ1-42 fibers (Homo sapiens, UniProt P05067).
T2 construct: Aβ1-42 lyophilized powder (Bachem) was reconstituted in hexafluoroisopropanol (HFIP) to 1 mM; purchased Bachem
T2 sequence (P05067 672-713 limits assumed): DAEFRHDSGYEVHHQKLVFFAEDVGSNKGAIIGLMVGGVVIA
Kind of test: Thioflavin T spectrofluorescence assay: disaggregation of preformed Aβ1-42 fibers. To be noted: Table 5; 330 μM small molecule, 10:1 molar ratio to pre-aggregated Aβ1-42, additional 24 h at 37° C.; mean ± SD of two independent experiments. The method, then:
as §1, §2
This solution was then allowed to aggregate at 37° C. for 24 h after which a small molecule and ThT were added to obtain a final concentration of 330 μM small molecule and 10 μM ThT. […] This solution was then incubated for additional 24 h at 37° C. The spectrofluorescence was then measured and % disaggregation calculated. Disaggregation is expressed as mean % disaggregation±1 standard deviation (SD) according to the same equation as for the inhibition of aggregation.

Test [1] deals with T3, Oregon Green labeled Aβ(1-42) (Homo sapiens, UniProt P05067).
T3 construct: DMSO-stock solutions of Oregon Green labeled Aβ(1-42) 1:1 with deionized water
T3 sequence (P05067 672-713 limits assumed): as above
Nature of the test: FCS-assay with 5 nM Oregon Green labeled Aβ-peptide (disaggregation of preformed aggregates). How it is done: In order to analyse the disaggregating properties of the compounds, preformed aggregates were used, which were induced straight before the FCS-measurement by diluting low concentrated (500 nM) DMSO-stock solutions of Oregon Green labeled Aβ(1-42) 1:1 with deionized water. The final concentration of Oregon Green labeled Aβ-peptide was 5 nM in 1×PBS and 3% DMSO.
To improve the reproducibility of the measurements of the concentration dependencies all samples were prepared fourfold.

Where [2] appears, read: read-out: Percentage of the “number of peaks” value compared to the control reaction without added ligand.
[3] abbreviates: read-out: Percentage of the “peaks × height“ value compared to the control reaction without added ligand.

T1 sequence (P05067 672-713 limits assumed): as above

Compound `Cc1ccc(-c2cc(NCCNc3cc(-c4cccs4)[nH]n3)n[nH]2)cc1` [Compound 1ab, N-(5-(Thiophen-2-yl)-1H-pyrazol-3-yl)-N′-(5-p-tolyl-1H-pyrazol-3-yl)ethane-1,2-diamine bishydrochloride] gave an inhibition at 330 µM at Aβ1-42 of 85 ± 8.6%. At preformed Aβ1-42 fibers, the “% disaggregation” value was 78.0 ± 4.5%. Also, the remaining activity at 0.01 µM amounted to 55.6% in test [1] (setting [2]) and 27% in test [1] (setting [3]). The remaining activity at 0.1 µM in test [1] (setting [2]) was 54.2%; in test [1] (setting [3]), 51.4%.

Compound `Cc1ccc(-c2cc(NCCNc3cc(-c4ccc(Cl)cc4)[nH]n3)n[nH]2)cc1` [Compound 1ae, N-(5-(4-Chlorophenyl)-1H-pyrazol-3-yl)-N′-(5-p-tolyl-1H-pyrazol-3-yl)ethane-1,2-diamine bishydrochloride] returned an inhibition at 330 µM against Aβ1-42 of 83.7 ± 1.7%. Further, the “% disaggregation” value at preformed Aβ1-42 fibers is on record as 76.0 ± 2.1%. In test [1] (setting [2]), the remaining activity at 0.01 µM was found to be 72.3%, the remaining activity at 0.1 µM amounted to 59.8% and the remaining activity at 0.2 µM stood at 45.5%. Moreover, in test [1] (setting [3]), the remaining activity at 0.01 µM is 65.5%, the remaining activity at 0.1 µM was 60.4% and the remaining activity at 0.2 µM worked out at 53.1%.

Compound `Clc1ccc(-c2cc(NCCNc3cc(-c4cccs4)[nH]n3)n[nH]2)cc1` [Compound 1ah, N-(5-(4-Chlorophenyl)-1H-pyrazol-3-yl)-N′-(5-(thiophen-2-yl)-1H-pyrazol-3-yl)ethane-1,2-diamine bishydrochloride] yielded an inhibition at 330 µM against Aβ1-42 of 89.1 ± 2.5%. The “% disaggregation” value at preformed Aβ1-42 fibers is on record as 88.8 ± 1.6%. Also, in test [1] (setting [2]), the remaining activity at 0.01 µM was found to be 44.4%, the remaining activity at 0.1 µM was 61.1%, the remaining activity at 0.2 µM worked out at 60.8% and the remaining activity at 1 µM turned out to be 83.7%. In test [1] (setting [2]), the remaining activity at 5 µM turned out to be 82.6%, the remaining activity at 25 µM came out at 75% and the remaining activity at 100 µM was found to be 40.9%. In test [1] (setting [3]), the remaining activity at 0.01 µM amounted to 38.9%, the remaining activity at 0.1 µM turned out to be 44.8%, the remaining activity at 0.2 µM was 69.3% and the remaining activity at 1 µM worked out at 136%. Also, in test [1] (setting [3]), the remaining activity at 5 µM amounted to 112%, the remaining activity at 25 µM turned out to be 254% and the remaining activity at 100 µM was 143%.

At Aβ1-42, `Cc1ccc(-c2cc(NCCNc3cc(-c4ccc(C)cc4)[nH]n3)n[nH]2)cc1` [Compound 1d, N^1,N^2-bis(5-p-Tolyl-1H-pyrazol-3-yl)ethane-1,2-diamine bishydrochloride] came in with an inhibition at 330 µM of 88.3 ± 1%. Besides, the “% disaggregation” value on preformed Aβ1-42 fibers was determined as 77.1 ± 2.5%. Further, the remaining activity at 0.2 µM amounted to 72.8% in test [1] (setting [2]) and 83.1% in test [1] (setting [3]).

Turning to `Clc1ccc(-c2cc(NCCNc3cc(-c4ccc(Cl)cc4)[nH]n3)n[nH]2)cc1` [Compound 1f, N^1,N^2-bis(5-(4-Chlorophenyl)-1H-pyrazol-3-yl)ethane-1,2-diamine bishydrochloride], on Aβ1-42, the inhibition at 330 µM turned out to be 86.5 ± 7.4%. Moreover, at preformed Aβ1-42 fibers, the “% disaggregation” value turned out to be 78.4 ± 1.7%. Moreover, the remaining activity at 0.2 µM in test [1] (setting [2]) came to 55.9%; in test [1] (setting [3]), 101%.

Regarding `COc1ccc(-c2cc(NCCNc3cc(-c4ccc(OC)cc4)[nH]n3)n[nH]2)cc1` [Compound 1g, N^1,N^2-bis(5-(4-Methoxyphenyl)-1H-pyrazol-3-yl)ethane-1,2-diamine bishydrochloride], the inhibition at 330 µM on Aβ1-42 stood at 68.2 ± 7.7%. Besides, the “% disaggregation” value at preformed Aβ1-42 fibers is recorded as 66.6 ± 4.2%.

Compound `Brc1ccc(-c2cc(NCCNc3cc(-c4ccc(Br)cc4)[nH]n3)n[nH]2)cc1` [Compound 1u, N^1,N^2-bis(5-(4-Bromophenyl)-1H-pyrazol-3-yl)ethane-1,2-diamine bishydrochloride] gave an inhibition at 330 µM on Aβ1-42 of 77.2 ± 1.5%. Besides, on preformed Aβ1-42 fibers, the “% disaggregation” value turned out to be 78.8 ± 5.1%. In test [1] (setting [2]), the remaining activity at 0.2 µM came to 58%, the remaining activity at 1 µM was 60%, the remaining activity at 5 µM stood at 47.5% and the remaining activity at 25 µM worked out at 45%. In addition, the remaining activity at 100 µM in test [1] (setting [2]) came out at 35%. Also, in test [1] (setting [3]), the remaining activity at 0.2 µM was 59.2%, the remaining activity at 1 µM stood at 62.4%, the remaining activity at 5 µM was 48% and the remaining activity at 25 µM was found to be 49.2%. In addition, the remaining activity at 100 µM in test [1] (setting [3]) was 27.2%.
